Experiments:
U87MG cells = assay: Colony formation in soft agar, U87MG; assay type: cell-based, human; settings: 5 µM HB-19, U87MG
Method: Figure 4 HB-19 inhibits colony formation in soft agar by tumor cell lines. (A) MDA-MB-231 cells in culture medium were seeded in triplicate in the absence (histogram C) or presence of 0.1, 0.5 and 1 of µM HB-19, or 0.1 µM of the anti-nucleolin mAb MS-3 or control IgG, or 10 µM bisphosphonate (BisP). (B) Various tumor cell lines (as indicated) in culture medium were seeded in triplicate in the absence (histogram Control) or presence of 5 µM HB-19. After 10–21 days, colonies with diameters greater than 50 µm were scored as positive. Statistical significance: *0.01<p<[…], **p<0.01, ***p<0.001.
Carcinoma cells (2×10^4) were mixed in 0.35% top agar, diluted in complete medium (DMEM containing 10% FBS) in the absence or presence of HB-19, and plated onto 0.8% bottom agar into 12-well plates. Cells were treated twice a week during 10 to 21 days. Colonies with diameters greater than 50 µm were scored as positive using a phase contrast microscope equipped with a measuring grid at magnification 100× [45]. The number of colonies was determined by analyzing 5 fields/well from 3 wells and the test was repeated at least twice.

nucleolin = settings: cited from earlier work
Source text: HB-19 presents pentavalently the tripeptide Kψ(CH2N)PR in which the reduced peptide bond provides high stability against serum proteases (Figure 1). HB-19 forms a stable complex with the cell-surface expressed nucleolin and is internalized by an active process. This le ... || The interaction of HB-19 with surface nucleolin was investigated using human breast cancer MDA-MB-231 tumor cells and human umbilical vein endothelial cells (HUVECs). […] Similarly, HB-19/Btn binds and forms a stable complex with surface nucleolin in a dose-dependent manner in both types of cell ... || Previously, guanosine-rich phosphodiester oligonucleotides (referred to as GROs) and endostatin have been reported to exert antitumoral and antiangiogenic activity, respectively, through interaction with surface nucleolin [21], [41], [42]. […] At 20°C, GRO ... || (+ 1 further places)

[1] = system: CD31 endothelial marker in tumors; assay: Tumor vascularization, CD31 immunohistochemistry; assay type: in vivo, mouse; settings: CD31 staining; HB-19 5 mg/kg or 5-FU 40 mg/kg, intraperitoneal, 8 weeks; compared to untreated tumors
Method: Figure 9 Reduced density of blood vessels in HB-19 treated tumor-bearing mice. Sections of tumors recovered from mice, untreated control and treated with either HB-19 or 5-FU (experiment described in Figure 8B) were stained with antibodies against the CD31 endothelial marker and analyzed by fluorescence microscopy. […] Angiogenesis was quantified by image analysis of CD31-labeled endothelial cells.
Immediately after surgical resection, tumors, were frozen in liquid nitrogen and fixed for 20 min in acetone at 4°C or fixed with 4% PFA for paraffin inclusion. The sections of 8 µm were re-hydrated and saturated in PBS containing 1% BSA and 2% normal goat serum. To visualize tumor endothelial cells, sections were incubated with a Rat anti-mouse CD31 monoclonal antibody (1∶50) in saturation buffer 1 hour at room temperature. After two washes in PBS, sections were incubated for 1 hour at room temperature with biotinylated goat anti-Rat IgG (1∶1000 dilution; Chemicon International Inc., Temecula, CA) in saturation buffer, followed by three washes in PBS and incubation with the avidin-biotinylated-alkaline phosphatase complex (Vector Laboratories). […] Angiogenesis was quantified by Image analysis of CD31-labeled endothelial cells. The EC density in each field was expressed as the ratio of EC area/total area examined ×100 (%). […]

athymic nude mice = assay: Toxicity observations in treated nude mice; settings: HB-19, 3 times per week; data not shown
[2] = system: chick embryo chorioallantoic membrane; assay: Chick embryo chorioallantoic membrane (CAM) angiogenesis assay; assay type: in vivo, chicken; settings: 48 h; for relative percent inhibition of angiogenesis: total vessel length vs control, P<0.001, 15–20 eggs
Method: Figure 7 Inhibition of in vivo angiogenesis by HB-19 in chick embryo chorioallantoic membrane (CAM) assay. Macroscopic observation of the angiogenic response induced by gelatin sponges (1 cm^2), soaked with 40 µl of PBS (Control) or 40 µl PBS containing HB-19 at concentrations of 10, 20 and 50 µM (corresponding to 0.4, 0.8 and 2 nmols of HB-19, respectively). After 48 h, CAMs were fixed and excised from the eggs . Photographs were taken and the total length of the vessels was measured using the Image PC image-analysis software (Scion Corporation, USA)[48]. Each sample was tested three times using 15–20 eggs for each data point. The relative percent inhibition (P<0.001) of angiogenesis compared to the control was 27, 36 and 51% in the presence of 0.4, 0.8 and 2 nmols of HB-19, respectively.
Leghorn fertilized eggs (Pindos, Greece) were incubated for 4 days at 37°C. A window was then opened on the eggshell, exposing the CAM. The window was covered with sterile tape, and the eggs were returned to the incubator. On day 9 of embryo development, 20 µl of distilled water alone as a control or containing HB-19 was applied on a 1-cm2 area of the CAM inside a silicon ring. After 48 hours of incubation at 37°C, CAMs were fixed in situ with saline-buffered formalin, excised from the eggs, placed on slides, and left to dry in air. Photographs were taken and the total length of the vessels was measured as described.

## pseudo-tripeptide Lysψ(CH2N)-Pro-Arg coupled to a template (H2NLys-Lys-Lys-Gly-Pro-Lys-Glu-Lys-AhxCONH2) [HB-19, pseudopeptide presenting pentavalently the pseudo-tripeptide Lysψ(CH2N)-Pro-Arg coupled to a template]
U87MG cells
  colony formation: reduced markedly
nucleolin
  binding site on nucleolin: binds the C-terminal RGG domain of cell-surface expressed nucleolin
  heparan sulfate proteoglycan requirement of binding to surface nucleolin: endostatin but not HB-19 binding to surface nucleolin requires heparan sulfate proteoglycans
nucleolin; physiological conditions
  reversibility of binding to surface nucleolin: bind surface nucleolin in an irreversible manner
[1]
  inhibition of tumor vascularization: significantly inhibited tumor vascularization
Athymic nude mice
  evidence of toxicity: nor induced any evidence of toxicity such as diarrhea, infection, weakness, or lethargy
[2]; 0.4 nmol HB-19 (10 µM, 40 µl)
  relative percent inhibition of angiogenesis: 27%
[2]; 0.8 nmol HB-19 (20 µM, 40 µl)
  relative percent inhibition of angiogenesis: 36%
[2]; 2 nmol HB-19 (50 µM, 40 µl)
  relative percent inhibition of angiogenesis: 51%
[2]; HB-19 10, 20 and 50 µM
  blood vessel branching and development: impaired significantly blood vessel branching and development in a dose-dependent manner

Source: article PMC2424174, “Suppression of Tumor Growth and Angiogenesis by a Specific Antagonist of the Cell-Surface Expressed Nucleolin” (PLoS ONE, 2008)
